Assay [1] relates to influenza virus A/Aichi/2/69 (H3N2). More on the design: species or system mice. To be noted: mouse, in vivo; for efficiency of treating influenza pneumonia in mice: po, 25 mg/kg/day.
Assay [2] concerns highly pathogenic strain Ia/duck/MN/1525/81 (H5N1). Kind of assay: microbe, parasite or virus in culture. It is filed as cell-based, influenza virus Ia/duck/MN/1525/81 (H5N1) in MDCK cells. To be noted: for IC50: Influenza A virus, H5N1, MDCK.
For assay [3], the system named is virus strain Ia/California/07/09 (H1N1). Put plainly: microbe, parasite or virus in culture. It is filed as cell-based, influenza virus Ia/California/07/09 (H1N1) in MDCK cells. The settings on record: for IC50: Influenza A virus, H1N1, MDCK.
In assay [4] the target is neuraminidase of influenza virus A/California/04/09 (Influenza A virus, UniProt C3W5S3). It is filed as biochemical. The settings on record: for IC50: read-out: neuraminidase activity IC50.
The target of assay [5] is neuraminidase of influenza virus B/Brisbane/60/2008 (Influenza B virus, UniProt C0LT34). In kind it is biochemical. To be noted: read-out: IC50, nM (number of experiments).
The target in assay [6] is neuraminidase of influenza virus A/California/07/09 (H1N1) (Influenza A virus, UniProt C3W6G3). In kind it is biochemical. To be noted: read-out: IC50, nM (number of experiments).
Assay [7] addresses neuraminidase of influenza virus B/Pert/211/2001 (197D) (Influenza B virus, UniProt Q3S340). It is filed as biochemical. To be noted: read-out: IC50, nM (number of experiments).
For assay [8], the target named is neuraminidase of influenza virus A/Aichi/2/69 (H3N2) (Influenza A virus, UniProt Q75VQ4). In kind it is biochemical. The settings on record: read-out: IC50, nM (number of experiments).

The structures appear in SMILES notation. A value given as a limit tells only on which side of the number the result lay.

In the case of `CCOC(=O)C1=C[C@@H](OC(CC)CC)[C@H](NC(=O)C(F)F)[C@@H](NC(=N)N)C1` [1.6, ethyl (3R,4R,5S)-5-guanidino-4-difluoroacetamido-3-(pentan-3-yloxy)cyclohex-1-enecarboxylate], in assay [1], the “efficiency of treating influenza pneumonia in mice” value is given as “high efficiency”.

Broadly, the IC50 is the midpoint of a concentration-inhibition curve. Take `CC(=O)NC1C(NC(=N)N)C=C(C(=O)O)OC1C(O)C(O)CO` [Zan, 5-Acetamido-2,3-didehydro-3,4,5-trideoxy-4-guanidino-alpha-D-glycero-D-galacto-2-nonulopyranosonic acid, reference compound]: the IC50 in assay [2] came to 51.2 µM; in assay [3], 16 µM.

As to `CCC(CC)O[C@@H]1C=C(C(=O)OCCc2ccccc2)C[C@H](NC(=N)N)[C@H]1NC(=O)C(F)F` [1.10, 2-phenylethyl (3R,4R,5S)-5-guanidino-4-(2,2-difluoroacetamido)-3-(pentan-3-yloxy)cyclohex-1-enecarboxylate], the IC50 in assay [4] was under 0.001 µM.

Turning to `CCC(CC)O[C@@H]1C=C(C(=O)OC2CCCCC2)C[C@H](NC(=N)N)[C@H]1NC(=O)C(F)F` [1.9, 2-cyclohexyl (3R,4R,5S)-5-guanidino-4-(2,2-difluoroacetamido)-3-(pentan-3-yloxy)cyclohex-1-enecarboxylate], the IC50 in assay [4] was under 0.001 µM.

As for `CCOC(=O)C1=C[C@@H](OC(CC)CC)[C@H](NC(C)=O)[C@@H](N)C1` [Tamiflu, reference compound], in assay [1], the “death of treated animals by the time the last animal of virus control group died” value is “prevented completely” and the “weight loss of treated animals” value is recorded as “did not lose weight”.

Turning to `CCC(CC)O[C@@H]1C=C(C(=O)OCCOC)C[C@H](NC(=N)N)[C@H]1NC(=O)C(F)F` [1.12, 2-methoxyethyl (3R,4R,5S)-5-guanidino-4-(2,2-difluoroacetamido)-3-(pentan-3-yloxy)cyclohex-1-enecarboxylate], the IC50 in assay [4] was under 0.001 µM.

Consider `CCC(CC)O[C@@H]1C=C(C(=O)OCCc2cccnc2)C[C@H](NC(=N)N)[C@H]1NC(=O)C(F)F` [1.11, 2-pyridin-3-ylethyl (3R,4R,5S)-5-guanidino-4-(2,2-difluoroacetamido)-3-(pentan-3-yloxy)cyclohex-1-enecarboxylate], for which the IC50 in assay [4] was under 0.001 µM.

Turning to `CCC(CC)O[C@@H]1C=C(C(=O)O)C[C@H](NC(=N)N)[C@H]1NC(=O)CF` [1.1, (3R,4R,5S)-5-guanidino-4-fluoroacetamido-3-(pentan-3-yloxy)cyclohex-1-enecarboxylic acid], the IC50 in assay [5] came out at 1.27 nM. Further, in assay [6], the IC50 turned out to be 0.18 nM. In addition, in assay [2], the “activity higher than that of Oseltamivir carboxylate, times” value turned out to be 24; the “activity higher than that of Zanamivir (Zan), times” value amounted to 16; the midpoint of inhibition, the IC50, lay at 3.2 µM. For the same compound, the IC50 in assay [7] turned out to be 2.08 nM. In assay [3], the “more active than Oseltamivir carboxylate (A2) by factor” value is reported as 13, the “more active than Zanamivir (Zan) by factor” value was 20 and the IC50 worked out at 0.78 µM. In assay [4], the “times more active than A2” value was found to be 4 and the “times more active than A4” value was found to be 400. Further, in assay [8], the IC50 is 0.69 nM.

For the compound `CCC(CC)O[C@@H]1C=C(C(=O)O)C[C@H](N)[C@H]1NC(C)=O` [A2, (3R,4R,5S)-5-amino-4-acetamido-3-(pentan-3-yloxy)cyclohex-1-enecarboxylic acid, reference compound], the results for the IC50 in assay [2] and in assay [3] were 77.5 µM and 9.9 µM, respectively.

Regarding `CCOC(=O)C1=C[C@@H](OC(CC)CC)[C@H](NC(=O)CF)[C@@H](NC(=N)N)C1` [1.3, ethyl (3R,4R,5S)-5-guanidino-4-fluoroacetamido-3-(pentan-3-yloxy)cyclohex-1-enecarboxylate], in assay [1], the “efficiency of treating influenza pneumonia in mice” value is “high efficiency”.

For the compound `CCC(CC)O[C@@H]1C=C(C(=O)O)C[C@H](NC(=N)N)[C@H]1NC(=O)C(F)F` [1.4, (3R,4R,5S)-5-guanidino-4-difluoroacetamido-3-(pentan-3-yloxy)cyclohex-1-enecarboxylic acid], in assay [4], the “times more active than A2” value is 2.7 and the “times more active than A4” value was 267.
